What all share (format): cell-based
In test [1] the test system is Pseudomonas aeruginosa, Staphylococcus aureus, CRPA, MRSA. Nature of the test: Increase in antibacterial activity (MBC) compared with KU-5878. The conditions noted are these: mark = antibacterial activity increased compared with KU-5878.
Test [2] deals with Methicillin-resistant Staphylococcus aureus (MRSA, ATCC 33591). Nature of the test: Minimum bactericidal concentration (MBC) assay. Also on record: unit: µg/mL. The conditions noted are these: Tables 11-21, no unit printed. In outline:
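Peptide at 0 to 300 μg/ml reacted 1 h at 37 °C with 1×10^5 CFU/ml bacteria in SP buffer (10 mM sodium phosphate, 1% TSB), bacteria pre-grown in 3% TSB. Aliquots then spread on TS agar and checked for colonies after 18 h at 37 °C.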

Test [3] relates to Staphylococcus aureus (ATCC 29213). Briefly: Minimum bactericidal concentration (MBC) assay. More on the design: MBC Staphylococcus aureus: unit: µg/mL. The conditions noted are these: Tables 11-21, no unit printed. In outline:
(§1)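 P. aeruginosa ATCC 27853 and S. aureus ATCC 29213 grown in 3% TSB at 37° C, 200 rpm, then diluted in SP buffer (10 mM sodium phosphate, 1% TSB). Peptides (0–300 μg/ml) exposed to 1×10^5 CFU/ml for 1 h at 37° C; aliquots plated on TS agar, 18 h. MBC = lowest concentration giving no colonies.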

The test system of test [4] is Pseudomonas aeruginosa (ATCC 27853). Nature of the test: Minimum bactericidal concentration (MBC) assay. Also on record: MBC Pseudomonas aeruginosa: unit: µg/mL. The conditions noted are these: Tables 11-21, no unit printed. The method, boiled down: as §1
The subject of test [5] is CRPA. Nature of the test: Minimum bactericidal concentration (MBC) assay. Also on record: unit: µg/mL. The conditions noted are these: Tables 11-21, no unit printed.

No end group written: not given here.

Consider “KKMMKKGGKFG-F-AIGMGIR [Peptide K4-d69T-d71M]”, for which, in test [1], the Increase in activity result is on record as “◯”. In test [2], this substance gave an MBC MRSA of 12 µg/mL. Besides, the MBC Staphylococcus aureus in test [3] amounted to 10 µg/mL. Moreover, in test [4], the MBC Pseudomonas aeruginosa was found to be 10 µg/mL. In addition, the MBC CRPA in test [5] amounted to 12 µg/mL.
As for “KKMMKKGGKFG-FMAIGMGIR [Peptide 5878-K4-d69T]”, the Increase in activity result in test [1] is “◯”. Besides, the MBC MRSA in test [2] was determined as 2 µg/mL. For the same substance, the MBC Staphylococcus aureus in test [3] stood at 2 µg/mL. In test [4], this substance registered an MBC Pseudomonas aeruginosa of 4 µg/mL. Also, in test [5], the MBC CRPA came out at 3 µg/mL.
As to KKMMKKGGKFGGFMAIGMGIR [Peptide K4-T69G], the Increase in activity entry in test [1] is recorded as “◯”. In test [2], the “MBC MRSA” value came to 3. Besides, the “MBC Staphylococcus aureus” value in test [3] is on record as 2. The “MBC Pseudomonas aeruginosa” value in test [4] stood at 2. In addition, the “MBC CRPA” value in test [5] is 2.
For KKMMKKGGKFGTF--IG-GIR [d 71M 72A 75M], in test [1], the Increase in activity entry is “◯”. In addition, the MBC MRSA in test [2] amounted to 3 µg/mL. Moreover, in test [3], the MBC Staphylococcus aureus came out at 3 µg/mL. This substance also yielded an MBC Pseudomonas aeruginosa in test [4] of 2 µg/mL. In test [5], this substance had an MBC CRPA of 2 µg/mL.
As to “KKMMKKGGKFGTF--IGMGIR [Peptide K4-d71M-d72A]”, the Increase in activity result in test [1] was “◯”. In test [2], the MBC MRSA came out at 20 µg/mL. In test [3], this substance gave an MBC Staphylococcus aureus of 20 µg/mL. Also, the MBC Pseudomonas aeruginosa in test [4] is 20 µg/mL. Besides, in test [5], the MBC CRPA came out at 20 µg/mL.
Take “KKMMKKGGKFGTF-AIG-GIR [Peptide K4-d71M-d75M]”: in test [1], the Increase in activity result was “◯”. Also, in test [2], the MBC MRSA came out at 5 µg/mL. Moreover, the MBC Staphylococcus aureus in test [3] is 3 µg/mL. The substance further showed an MBC Pseudomonas aeruginosa in test [4] of 4 µg/mL. This substance also returned an MBC CRPA in test [5] of 4 µg/mL.
In the case of “KKMMKKGGKFGTF-AIGMGIR [Peptide 5878-K4-d71M]”, the Increase in activity entry in test [1] was “◯”. In test [2], this substance registered an MBC MRSA of 4 µg/mL. This substance returned an MBC Staphylococcus aureus in test [3] of 4 µg/mL. This substance also showed an MBC Pseudomonas aeruginosa in test [4] of 2 µg/mL. This substance returned an MBC CRPA in test [5] of 6 µg/mL.
“KKMMKKGGKFGTFM-IGMGIR [Peptide 5878-K4-d72A]”: the Increase in activity result in test [1] is reported as “◯”. This substance also showed an MBC MRSA in test [2] of 3 µg/mL. For the same substance, the MBC Staphylococcus aureus in test [3] was found to be 2 µg/mL. For the same substance, the MBC Pseudomonas aeruginosa in test [4] was 2 µg/mL. Also, the MBC CRPA in test [5] was 4 µg/mL.
Take “KKMMKKGGKFGTFMAI-MGIR [Peptide 5878-K4-d74G]”: the Increase in activity entry in test [1] is “◯”. For the same substance, the MBC MRSA in test [2] worked out at 3 µg/mL. In addition, the MBC Staphylococcus aureus in test [3] worked out at 2 µg/mL. In test [4], this substance showed an MBC Pseudomonas aeruginosa of 2 µg/mL. Also, the MBC CRPA in test [5] came out at 4 µg/mL.
Turning to “KKMMKKGGKFGTFMAIG-GIR [Peptide 5878-K4-d75M]”, the Increase in activity result in test [1] is “◯”. This substance also gave an MBC MRSA in test [2] of 2 µg/mL. In addition, the MBC Staphylococcus aureus in test [3] came to 2 µg/mL. The substance further had an MBC Pseudomonas aeruginosa in test [4] of 2 µg/mL. Also, the MBC CRPA in test [5] came out at 4 µg/mL.
With “KKMMKKGGKFGTFMAIGM-IR [Peptide 5878-K4-d76G]”, in test [1], the Increase in activity entry is on record as “◯”. Moreover, in test [2], the MBC MRSA came to 4 µg/mL. In addition, the MBC Staphylococcus aureus in test [3] was 4 µg/mL. In test [4], this substance yielded an MBC Pseudomonas aeruginosa of 4 µg/mL. Further, the MBC CRPA in test [5] worked out at 4 µg/mL.
Regarding “KKMMKKGGKFGTFMAIGMG-R [Peptide 5878-K4-d77I]”, the Increase in activity entry in test [1] is on record as “◯”. The substance also registered an MBC MRSA in test [2] of 4 µg/mL. This substance also returned an MBC Staphylococcus aureus in test [3] of 7 µg/mL. Further, the MBC Pseudomonas aeruginosa in test [4] was determined as 4 µg/mL. Also, the MBC CRPA in test [5] was 6 µg/mL.
Turning to “KKMMKKGGKFGTFMAIGMGI- [Peptide 5878-K4-78R]”, in test [1], the Increase in activity entry is listed as “◯”. Besides, in test [2], the MBC MRSA amounted to 4 µg/mL. This substance also displayed an MBC Staphylococcus aureus in test [3] of 10 µg/mL. In addition, the MBC Pseudomonas aeruginosa in test [4] was 4 µg/mL. The substance further gave an MBC CRPA in test [5] of 8 µg/mL.
With “KKMMKKGGTFGTFMAIGMGIR [KU-5878-K3 (T59K, Q62K, S63K)]”, in test [1], the Increase in activity result is “◯”. Also, in test [2], the MBC MRSA was determined as 5 µg/mL. The substance further returned an MBC Staphylococcus aureus in test [3] of 4 µg/mL. The MBC Pseudomonas aeruginosa in test [4] was 4 µg/mL. In test [5], this substance had an MBC CRPA of 4 µg/mL.
Consider “KKMMKSGGTFGTFMAIGMGIR [KU-5878-K2(T59K, Q62K)]”, for which, in test [1], the Increase in activity entry was “◯”. The MBC MRSA in test [2] amounted to 8 µg/mL. Besides, the MBC Staphylococcus aureus in test [3] amounted to 8 µg/mL. In test [4], this substance showed an MBC Pseudomonas aeruginosa of 8 µg/mL. Also, in test [5], the MBC CRPA was 6 µg/mL.
In the case of KKMMQSGGTFGTFMAIGMGIR [KU-5878-T59K], the Increase in activity entry in test [1] was “◯”. In test [2], this substance displayed an MBC MRSA of 50 µg/mL. In test [3], this substance yielded an MBC Staphylococcus aureus of 40 µg/mL. The MBC Pseudomonas aeruginosa in test [4] amounted to 50 µg/mL. This substance also had an MBC CRPA in test [5] of 50 µg/mL.

The values are drawn from patent publication US12115209B2, “ROMO1-derived antimicrobial peptides including lysine substitution and variants thereof” (KOREA UNIVERSITY RESEARCH AND BUSINESS FOUNDATION, priority 2019, dated 2024).
